Assay results as given in patent US9212146B2, “Substituted pyridazinones for the treatment of tumors” (SHANGHAI INSTITUTE OF MATERIA MEDICA, CHINESE ACADEMY OF …, priority 2008, dated 2015).
pIC50: −log10 of the molar value. Where two headings read alike, the source gives them in different places.

Tested on: human hepatoma cell line Bel-7402
Test: SRB proliferation assay, Bel-7402
Format: cell-based
Settings: BEL-7402 cultivated in vitro, given as bounds, read-out: The Inhibition Activities for Human Liver Cancer Cells BEL-7402 (IC50)
Method: Protocol: the antineoplasmic activities in vitro of the compounds were assayed by a Sulforhodamine B (SRB) protocol. Tumor cells were cultivated at 37 under 5% CO2 in a RPMI 1640 medium or a DMEM medium (Gibco) containing 10% fetal bovine serum. Tumor cells were inoculated on a 96-well plate with a concentration of 0.4-1.0×10^4 cells per well according to the cell types. 24 hours later, the target compounds diluted 10 times were added, each compound having at least 5 concentrations. After treated by the compounds for 72 hours, the culture media were discarded, and the cells were fixed by 10% cold trichloroacetic acid, and then stained by Sulforhodamine B (SRB) solution. The uncombined SRB was washed off, and the SRB combined with protein was dissolved with Tris. OD values were recorded at 515 nm on an ELISA Reader, and the cell growth inhibition rate was calculated according to following equation: Inhibition rate=(ODcontrol−ODexperimental)/ODcontrol×100%
IC50 (50% inhibitory concentration) was calculated by using Logit method based on the inhibition rates at various concentration, and the results are shown in tables 1 and 2.
The following cell lines were used: human hepatocarcinoma cell line […]; ovarian cancer cell line SK-OV-3; human breast cancer cell line MDA-MB-231; human renal carcinoma cell line A498; colon adenocarcinoma cell line HT-29; non-small cell lung cancer cell line NCI-H460; lung adenocarcinoma cell line A549; human colon cancer cell line SW-620; human hepatoma cell line Bel-7402; human breast carcinoma cell line SK-BR-3; and human umbilical vein endothelial cells (HUVEC).

CC(C)N(c1ccc(-c2ccc(=O)[nH]n2)cc1C(F)(F)F)C(C)C [YHHU-688]
pIC50 (Homo sapiens, Bel-7402, 72 h): > 8.00

O=c1ccc(-c2ccc(NC3CCCC3)c(C(F)(F)F)c2)n[nH]1 [YHHU-689]
pIC50 (Homo sapiens, Bel-7402, 72 h): > 7.00

CCOC(=O)C1CCN(c2ccc(-c3ccc(=O)[nH]n3)cc2C(F)(F)F)CC1 [YHHU-693]
pIC50 (Homo sapiens, Bel-7402, 72 h): > 7.00

CSc1ccc(-c2ccc(=O)[nH]n2)cc1C(F)(F)F [YHHU-694]
pIC50 (Homo sapiens, Bel-7402, 72 h): > 7.00

O=c1ccc(-c2ccc(NCC3CCCCC3)c(C(F)(F)F)c2)n[nH]1 [YHHU-696]
pIC50 (Homo sapiens, Bel-7402, 72 h): > 7.00

O=c1ccc(-c2ccc(SCCO)c(C(F)(F)F)c2)n[nH]1 [YHHU-700]
pIC50 (Homo sapiens, Bel-7402, 72 h): > 5.00

CN(C)Cc1ccc(-c2ccc(=O)[nH]n2)cc1C(F)(F)F [YHHU-701]
pIC50 (Homo sapiens, Bel-7402, 72 h): > 8.00

O=c1ccc(-c2ccc(C#Cc3ccc(C(F)(F)F)cc3)c(C(F)(F)F)c2)n[nH]1 [YHHU-702]
pIC50 (Homo sapiens, Bel-7402, 72 h): > 5.00

O=c1ccc(-c2ccc(-c3ccccc3)c(C(F)(F)F)c2)n[nH]1 [YHHU-703]
pIC50 (Homo sapiens, Bel-7402, 72 h): > 5.00

O=c1ccc(-c2ccc(-n3ccnc3)c(C(F)(F)F)c2)n[nH]1 [YHHU-706]
pIC50 (Homo sapiens, Bel-7402, 72 h): > 5.00

O=c1ccc(-c2ccc(OC(F)(F)F)c(C(F)(F)F)c2)n[nH]1 [YHHU-707]
pIC50 (Homo sapiens, Bel-7402, 72 h): > 5.00

O=c1ccc(-c2ccc(-c3cccnc3)c(C(F)(F)F)c2)n[nH]1 [YHHU-709]
pIC50 (Homo sapiens, Bel-7402, 72 h): > 5.00

O=c1ccc(-c2ccc(C(F)(F)F)c(C(F)(F)F)c2)n[nH]1 [YHHU-710]
pIC50 (Homo sapiens, Bel-7402, 72 h): > 5.00

O=c1ccc(-c2ccc(NC3CCC(O)CC3)c(C(F)(F)F)c2)n[nH]1 (centres unmarked) [YHHU-711]
pIC50 (Homo sapiens, Bel-7402, 72 h): > 6.00

O=c1ccc(-c2ccc(NC3CCCC(O)C3)c(C(F)(F)F)c2)n[nH]1 (centres unmarked) [YHHU-712]
pIC50 (Homo sapiens, Bel-7402, 72 h): > 6.00

O=c1ccc(-c2ccc(OCC3CC3)c(C(F)(F)F)c2)n[nH]1 [YHHU-713]
pIC50 (Homo sapiens, Bel-7402, 72 h): > 6.00

O=c1ccc(-c2ccc(OCc3ccccc3)c(C(F)(F)F)c2)n[nH]1 [YHHU-714]
pIC50 (Homo sapiens, Bel-7402, 72 h): > 5.00

O=c1ccc(-c2ccc(NC3CCCCC3)c(C(F)(F)F)c2)n[nH]1 [YHHU-715]
pIC50 (72 hours): > 5.00

O=c1ccc(-c2ccc(NC3CCCCC3O)c(C(F)(F)F)c2)n[nH]1 (centres unmarked) [YHHU-716]
pIC50 (Homo sapiens, Bel-7402, 72 h): > 5.00

Cc1ccc(Sc2ccc(-c3ccc(=O)[nH]n3)cc2C(F)(F)F)cc1 [YHHU-717]
pIC50 (Homo sapiens, Bel-7402, 72 h): < 6.00

O=c1ccc(-c2ccc(N3CC4CCCC4C3)c(C(F)(F)F)c2)n[nH]1 (centres unmarked) [YHHU-718]
pIC50 (Homo sapiens, Bel-7402, 72 h): > 5.00

CN(C)CCNc1ccc(-c2ccc(=O)[nH]n2)cc1C(F)(F)F [YHHU-745]
pIC50 (Homo sapiens, Bel-7402, 72 h): < 6.00

CN(C)CCN(C)c1ccc(-c2ccc(=O)[nH]n2)cc1C(F)(F)F [YHHU-746]
pIC50 (Homo sapiens, Bel-7402, 72 h): < 6.00

O=c1ccc(-c2ccc(N3CCCCCC3)c(C(F)(F)F)c2)n[nH]1 [YHHU-747]
pIC50 (Homo sapiens, Bel-7402, 72 h): > 8.00

CC1CN1c1ccc(-c2ccc(=O)[nH]n2)cc1C(F)(F)F (centres unmarked) [YHHU-748]
pIC50 (Homo sapiens, 72 hours): > 8.00

CC(O)C1CCN(c2ccc(-c3ccc(=O)[nH]n3)cc2C(F)(F)F)CC1 (centres unmarked) [YHHU-751]
pIC50 (Homo sapiens, Bel-7402, 72 h): > 8.00

O=c1ccc(-c2ccc(N3CC(O)C3)c(C(F)(F)F)c2)n[nH]1 [YHHU-752]
pIC50 (Homo sapiens, Bel-7402, 72 h): > 7.00

O=c1ccc(-c2ccc(N3CCCC(O)C3)c(C(F)(F)F)c2)n[nH]1 (centres unmarked) [YHHU-753]
pIC50 (Homo sapiens, Bel-7402, 72 h): > 7.00

O=c1ccc(-c2ccc(NC3CCCCC3)c(C(F)(F)F)c2)n[nH]1 [YHHU-757]
pIC50 (72 hours): > 8.00

CNc1ccc(-c2ccc(=O)[nH]n2)cc1C(F)(F)F [YHHU-758]
pIC50 (Homo sapiens, Bel-7402, 72 h): > 8.00

O=c1ccc(-c2ccc(NCCO)c(C(F)(F)F)c2)n[nH]1 [YHHU-760]
pIC50 (Homo sapiens, Bel-7402, 72 h): < 7.00

CC(C)Nc1ccc(-c2ccc(=O)[nH]n2)cc1C(F)(F)F [YHHU-761]
pIC50 (Homo sapiens, Bel-7402, 72 h): > 8.00

COc1ccc(-c2ccc(=O)[nH]n2)cc1C(F)(F)F [YHHU-762]
pIC50 (72 hours): > 8.00

O=c1ccc(-c2ccc(N3CCCCC3CO)c(C(F)(F)F)c2)n[nH]1 (centres unmarked) [YHHU-763]
pIC50 (Homo sapiens, Bel-7402, 72 h): > 7.00

O=C(O)C1CCCN(c2ccc(-c3ccc(=O)[nH]n3)cc2C(F)(F)F)C1 (centres unmarked) [YHHU-765]
pIC50 (Homo sapiens, Bel-7402, 72 h): > 7.00

O=c1ccc(-c2ccc(N3CCC(O)C3)c(C(F)(F)F)c2)n[nH]1 (centres unmarked) [YHHU-766]
pIC50 (Homo sapiens, Bel-7402, 72 h): > 7.00

CCOC(=O)C1CCCN1c1ccc(-c2ccc(=O)[nH]n2)cc1C(F)(F)F (centres unmarked) [YHHU-768]
pIC50 (Homo sapiens, Bel-7402, 72 h): > 7.00

CCOC(=O)CCNc1ccc(-c2ccc(=O)[nH]n2)cc1C(F)(F)F [YHHU-769]
pIC50 (Homo sapiens, Bel-7402, 72 h): > 6.00

O=c1ccc(-c2ccc(OCCN3CCCC3)c(C(F)(F)F)c2)n[nH]1 [YHHU-770]
pIC50 (Homo sapiens, Bel-7402, 72 h): > 7.00

O=c1ccc(-c2ccc(OCCN3CC3)c(C(F)(F)F)c2)n[nH]1 [YHHU-771]
pIC50 (Homo sapiens, 72 hours): > 7.00

CC(C)CCOc1ccc(-c2ccc(=O)[nH]n2)cc1C(F)(F)F [YHHU-772]
pIC50 (Homo sapiens, Bel-7402, 72 h): > 7.00
